PubChem BioAssay (NCI)
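Each compound was tested at five concentrations against cells in 96-well plates for 48 hours. TGI denotes the concentration required for complete inhibition of growth.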

Columns and labels:
Assay in all cases: NCI anticancer screen, dose series, 48 h
ACHN renal = test system: ACHN renal
U251 CNS = test system: U251 CNS
RXF 393 renal = test system: RXF 393 renal
EKVX NSCLC = test system: EKVX NSCLC
SW-620 colon = test system: SW-620 colon
KM12 colon = test system: KM12 colon
OVCAR-8 ovarian = test system: OVCAR-8 ovarian
HT29 colon = test system: HT29 colon
MCF7 breast = test system: MCF7 breast
HOP-92 NSCLC = test system: HOP-92 NSCLC

Structure (SMILES)	TGI (ACHN renal) [µM]	TGI (U251 CNS) [µM]	TGI (RXF 393 renal) [µM]	TGI (EKVX NSCLC) [µM]	TGI (SW-620 colon) [µM]	TGI (KM12 colon) [µM]	TGI (OVCAR-8 ovarian) [µM]	TGI (HT29 colon) [µM]	TGI (MCF7 breast) [µM]	TGI (HOP-92 NSCLC) [µM]
Cc1ccc(S(=O)(=O)N(CC(O)COc2ccccc2)c2ccccc2Cl)cc1 (stereo not given)	33.7	29.2	32	31.8	36.6	30.5	33.5	31.9	58.5	–
COC(=O)C12CCC(CC1=O)C2(C)C (stereo not given)	> 100	> 100	> 100	> 100	> 100	–	> 100	> 100	–	> 100
COc1cc2ccnc3c2c(c1OC)N(C)C=C3	46.4	> 100	68.6	61.6	> 100	> 100	> 100	–	44.6	–
O=C(N/N=C/c1ccc(O)cc1)NNCCO	–	> 100	–	–	> 100	> 100	> 100	> 100	> 100	–
Cn1cnc([N+](=O)[O-])c1Sc1nnc(-c2ccc(Cl)cc2)n1C	29.3	30.4	17	20.4	23.5	49.9	46	32	–	25.8
Cc1c2cc[n+](C)cc2c(C)c2c1[nH]c1ccc(OC(C)(C)C)cc12	> 100	> 100	> 100	–	> 100	> 100	> 100	> 100	–	> 100
CCC(/C(=N/NC(=O)C[N+](C)(C)C)c1ccccc1)C1OC(=O)c2ccccc21 (stereo not given)	> 100	> 100	> 100	–	> 100	> 100	> 100	> 100	–	> 100
OC[C@H](O)[C@@H](OCc1ccccc1)[C@H](NCc1ccccc1)c1cccs1	> 100	> 100	–	> 100	> 100	> 100	> 100	> 100	> 100	> 100
CNC(=O)/C(C#N)=C(\N)N1CCCC1	> 100	> 100	> 100	> 100	> 100	> 100	> 100	> 100	–	–
COc1ccc(NC(=O)CC2SC(=Nc3ccc(Cl)cc3C)NC2=O)c([N+](=O)[O-])c1 (stereo not given)	> 100	> 100	> 100	> 100	> 100	–	> 100	> 100	–	> 100
Nc1ccc2ncc(NCc3ccc(F)cc3)nc2c1	> 100	> 100	> 100	> 100	> 100	> 100	> 100	> 100	–	> 100
O=[N+]([O-])c1cc(-c2ccc([As](=O)(O)O)cc2)ccc1[As](=O)(O)O	> 100	> 100	> 100	> 100	> 100	> 100	> 100	> 100	–	> 100
Cc1nc2cc3[nH]c4ccccc4c(=O)c3cc2s1	> 100	> 100	> 100	> 100	> 100	> 100	> 100	> 100	–	> 100
COc1ccc(-c2oc(C=Nc3ccccc3)c([N+](=O)[O-])c2-c2ccc(OC)c(OC)c2)cc1OC	> 100	> 100	> 100	–	> 100	> 100	> 100	> 100	–	> 100
O=C(C#Cc1ccccc1)Nc1ccccc1CC(c1c[nH]c2ccccc12)c1c[nH]c2ccccc12	–	–	14	86.1	27.4	44.4	39.7	87.9	–	–
COC(=O)c1cc(NC(=O)Cn2c3ccccc3c3ccccc32)cn1C	> 100	> 100	> 100	> 100	> 100	> 100	> 100	> 100	> 100	–
CN(C)c1ccc(/C=C(\C#N)C(=O)c2ccccc2)cc1Br	> 100	> 100	29.6	> 100	> 100	> 100	> 100	> 100	–	> 100
COc1ccccc1-c1nc[nH]c1-c1ccccc1OC	> 100	–	87.1	> 100	> 100	28.3	–	–	> 100	> 100
CCc1cc2c(cc1O)CC[C@@H]1[C@@H]2CC[C@]2(C)[C@@H](O)CC[C@@H]12	22.9	16.7	–	25.5	16.6	17.4	22.4	29.3	10.4	–
O=C(O)C(=Cc1ccc(-c2ccc([N+](=O)[O-])cc2)o1)C(=O)O	> 100	> 100	> 100	> 100	> 100	> 100	> 100	> 100	> 100	–
O=C(O)Cn1cnc2c(=O)[nH]c(Nc3ccccc3)nc21	> 100	> 100	–	> 100	> 100	> 100	> 100	> 100	> 100	> 100
CCOC1=C2N=C(C(CC)c3ccc(F)cc3)N=C2C(=O)c2ccccc21 (stereo not given)	> 81.6	53.5	39.5	> 79.7	> 100	> 56.5	> 100	45.3	–	66.3
COC(=O)[C@@]1(Cc2ccc(OC(C)=O)cc2)Cc2cc3ccccc3n2N1	> 100	> 100	–	> 100	> 100	> 100	> 100	> 100	> 100	> 100
Nc1nc2c(nnn2C2C=C(CO)C(O)C2O)c(=O)[nH]1 (stereo not given)	> 100	> 100	> 100	> 100	> 100	> 100	> 100	> 100	–	> 100
